# Laboratory results: US6365173B1, “Stereocomplex polymeric carriers for drug delivery” (Efrat Biopolymers Ltd., priority 1999, dated 2002)
# Experiments:
# Type in all cases: physicochemical
# [1] = TRH release from D-PLA complex powder in phosphate buffer; conditions: D-PLA complex powder (10% w/w TRH) dispersed in phosphate buffer pH7.4 at 37° C.
# Protocol: TRH is a tripeptide with the following structure: pL-Glu-L-His-L-Pro_NH2. 250 mg of D-PLA (Mw=30,000 or Mw=6,000) were mixed with 25 mg (10% w/w) of TRH in 10 ml acetonitrile at 60° C. The solution became clear after 15 minutes and remained clear for 72 hours, at which point precipitate formed. The solution was very turbid, but could not be filtered at room temperature due to the fine particle size of the precipitate. After cooling at 0° C. over night, the precipitate was filtered. The TRH concentration in the acetonitrile solution and in the powder was analyzed as described above using the Lowry method for peptide analysis. Over 90% of the drug was determined to be in the powder and a negligible amount of the drug was found in the acetonitrile solution. When dispersed in phosphate buffer pH7.4 at 37° C., TRH was constantly released for 6 weeks.
# [2] = Release of lidocaine from compression molded stereocomplex devices in buffer; conditions: compression molded D-PLA/L-PLA stereocomplex (200 mg, Mw=30,000) with lidocaine (20 mg); buffer solution pH 7.4 at 37° C.
# Protocol: A fine powder of the nano-discs stereocomplexed of D-PLA and L-PLA and their complexes which were of flat shapes of discs, rods, and triangles, as analyzed in Example 3, provided a unique opportunity for the preparation of drug delivery devices. Devices were prepared by compression molding of these nanoscale structures with drugs.
# The disintegration time and the release of the incorporated drug in buffer solutions was slower than the compression molded devices of the corresponding regular polymers. The regular polymer powders are difficult to obtain and their properties are erratic, since they are prepared by precipitation in non-aqueous solvent and grinding at a temperature below the glass transition temperature which provides irregular particle size and shape. The particles formed by stereocomplex formation are of well-defined flat crystallites that are easy to compression mold.
# In a typical experiment, disc (10×2 mm) and rod shape (4×10 mm) devices were prepared by mixing the stereocomplex powder of D-PLA and L-PLA (200 mg, Mw=30,000) with lidocaine (20 mg) and compression molding into discs of […] size.
# Lidocaine was released constantly for 30 days when placed in buffer solution p H7.4 at 37° C.
# [3] = Ibuprofen release from D-PLA-HSA stereocomplex tablets in phosphate buffer; conditions: ibuprofen (100 mg) with D-PLA-HSA or D-PLA-L-PLA-HSA (500 mg), 300 mg tablets; phosphate buffer at physiological pH 37° C.
# Protocol: The precipitate of D-PLA-HSA prepared as described in Example 9 was also used as a matrix carrier for the delivery of small drugs. In a typical experiment, a fine powder of ibuprofen (100 mg) was mixed with the D-PLA-HSA or D-PLA-L-PLA-HSA (500 mg) and the powder was compressed into tablets of 300 mg each. The tablets released the ibuprofen for one week when placed in phosphate buffer at physiological pH 37° C. In similar experiments, other proteins were stereocomplexed with PLA enantiomers including fibrin, fibrinogen, collagen and gelatin.
# [4] = LHRH release from PLA stereocomplex powders in phosphate buffer (syringe method, HPLC); conditions: nanosize complexes of LHRH with D-PLA, precipitated in hot acetonitrile
# Protocol: The analysis of LHRH was conducted using the following HPLC method: Mobile phase comprised 30% acetonitrile, 70% TEAP (triethylammoniumphosphate) buffer […] pH-3. Column comprised Lichrosphere RP-18 […] (MERCK); Detector. UV 278 nm and flow rate at 1 ml/min.
# All samples were filtered through a 2μ filter. One drop of phosphoric acid was added to the sample solutions before injection. The retention time for LHRH was 6.5 minutes and a calibration curve was generated (r2=0.999).
# Since the powder of the LHRH in the stereocomplex is very thin, all the attempts to sink it at the release medium failed. The release was conducted in the following way: 100 mg of the powder in 5 ml phosphate buffer were added to a 10 ml syringe. The edge of the syringe was sealed and constantly shaken at a rate of 150 RPM and a temperature of 37° C. At each interval of time, the syringe was inverted so that the solid floated at the top of the buffer and all of the buffer was pushed out of the syringe in a dropwise fashion. Using this technique, the powders of LHRH in PLA stereocomplex (formulations a-e) were analyzed against a control blank of PLA stereocomplex (no drug).
# [5] = In vitro release of leuprolide from D-PLA/L-PLA complex powder; conditions: in 40 days; 4 mg leuprolide acetate in D-PLA/L-PLA complex powder; phosphate buffer pH 7.4 at 37° C.
# Protocol: Preparation of complex: Solutions of leuprolide acetate in acetonitrile (4 mg) and D-PLA, (58 mg, Mw=100,000) and L-PLA (38 mg, Mw=30,000) in acetonitrile were mixed together (total 5 ml) and allowed to stir for 3 days at 50° C. The precipitated powder was isolated by filtration to yield 98 mg of 1 micron size porous particles. No leuprolide remained in the acetonitrile solution.
# In vitro release was conducted in phosphate buffer pH 7.4 at 37° C. Leuprolide concentration was determined by HPLC (acetonitrile:water, C18 column, 1 ml/min). About 37% of the drug was released constantly in 40 days.
# [6] = MTX release from PLA stereocomplex tablets in phosphate buffer; conditions: first 10 days; 10 ml pH 7.4 phosphate buffer at 37° C., shaking 150 RPM
# Protocol: Formulations: MTX was incorporated in a stereocomplex of D-PLA/L-PLA (Mw=30,000) prepared by precipitation in acetonitrile. The drug in the form of a powder was mixed with the stereocomplex in the form of a powder, and the mixture compression molded to form tablets. Alternatively, the stereocomplex and MTX were dissolved in dichloromethane, and solvent evaporated to yield a fine powder. For comparison, a solution of random amorphic DL-PLA (Mw=30,000) and MTX was evaporated to dryness to yield a clear flexible and strong yellow film which could be formed into a powder through the use of liquid nitrogen.
# In a typical experiment, 300 mg of PLA 1:1 stereocomplex was dissolved in dichloromethane. MTX (5% w/w) was added to the solution, and the mixture was vortexed for two minutes. The solvent was evaporated with a nitrogen stream, to yield a very fine powder. […] Discs were prepared by compression molding of the MTX—stereocomplex power (100 mg) using a stainless steel mold (internal diameter 10 mm) and a Carver Press at 10 tons. Alternatively, 300 mg of PLA 1:1 stereocomplex fine powder (average particle size 2.2 microns was mixed with MTX (150 mg) and the uniform powder was compressed into tablets of 200 mg each.
# MTX release was conducted in 10 ml of pH 7.4 phosphate buffer at 37° C. with constant shaking of 150 RPM. […]
compound,measurement,setting,value
pL-Glu-L-His-L-Pro_NH2 [TRH],time over which TRH was constantly released,[1],6 weeks
"CCN(CC)CC(=O)Nc1c(C)cccc1C [Lidocaine, lidocaine]",time over which lidocaine was released constantly,[2],30 days
CC(C)Cc1ccc(C(C)C(=O)O)cc1 (stereo not drawn) [ibuprofen],time over which the tablets released ibuprofen,[3],one
Leutinizing Hormone Releasing Hormone [LHRH],time over which LHRH was constantly released from nanospheres,[4],over 3 weeks
"CCNC(=O)[C@@H]1CCCN1C(=O)[C@H](CCCNC(=N)N)NC(=O)[C@H](CC(C)C)NC(=O)[C@@H](CC(C)C)NC(=O)[C@H](Cc1ccc(O)cc1)NC(=O)[C@H](CO)NC(=O)[C@H](Cc1c[nH]c2ccccc12)NC(=O)[C@H](Cc1c[nH]cn1)NC(=O)[C@@H]1CCC(=O)N1 [Leuprolide, leuprolide acetate]",drug (leuprolide) released constantly,[5],About 37%
"CN(Cc1cnc2nc(N)nc(N)c2n1)c1ccc(C(=O)N[C@@H](CCC(=O)O)C(=O)O)cc1 [MTX, Methotrexate]",MTX constantly released from the PLA stereocomplex,[6],About 30%
